This note sets out measurements from patent US20190048052A1, “ANTI-MICROBIAL PEPTIDES AND COATINGS” (Board of Regents of the University of Nebraska, priority 2016, published 2019).

Residues, ends and D or L forms follow the SMILES beside them.

Data set [1] deals with S. aureus USA300. Put plainly: FITC entry into live bacteria, confocal microscopy. The data set is classed as cell-based, Staphylococcus aureus. The conditions noted are these: peptide and FITC 9 μM. On the procedure:
The entrance of a fluorescent dye into live bacterial cells was also followed by confocal microscopy (Mishra et al. (2015) RSC Advances 5:59758-59769). In brief, S. aureus USA300 was grown to the exponential phase from the overnight culture. The cells were then washed twice with fresh 1×PBS (pH 7.2) and the final cell density was adjusted to 1×10^8 CFU/mL. 1500 μL of the culture was added to the chambers of cuvettes (borosilicate cover glass systems; Nunc Cat. No. 155380) with equimolar concentrations of TetraF2W-RK and fluorescein isothiocyanate FITC (9 μM). The samples were examined with a confocal laser scanning microscope (Zeiss 710) with live time series of picture taken every 5 seconds for 5 minutes and the data were processed using Zen 2010 software.

The target in the next data set is T1, proteinase K (Parengyodontium album, UniProt P06873).
T1 construct: purchased Sigma or Fisher
T1 sequence (P06873 106-384): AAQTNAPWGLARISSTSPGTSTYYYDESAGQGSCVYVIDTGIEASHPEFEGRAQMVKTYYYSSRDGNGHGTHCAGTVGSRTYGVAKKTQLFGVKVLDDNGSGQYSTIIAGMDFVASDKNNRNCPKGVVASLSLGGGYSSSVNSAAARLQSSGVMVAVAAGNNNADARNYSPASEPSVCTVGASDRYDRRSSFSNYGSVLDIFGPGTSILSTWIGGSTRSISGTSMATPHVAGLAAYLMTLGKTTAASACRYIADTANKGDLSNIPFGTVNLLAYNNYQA
Put plainly: Peptide stability to proteases (SDS-PAGE). The class given is in vitro ADME, fungal. The conditions noted are these: peptide:protease 40:1, 24 hours, 37° C. On the procedure: When degraded, no peptide band could be detected on a 5% stacking/18% resolving tricine gel after 2-4 hours incubation at 37° C. Briefly, a solution (100 μL) containing 250 μM peptide and 6.25 μM protease (Sigma or Fisher) in 10 mM PBS buffer (pH 8) was incubated at 37° C. (peptide/protease molar ratio, 40:1). Aliquots (10 μL) of the reaction solutions were taken at 0, 6, and 24 hours and immediately mixed with 10 μL of 2× SDS loading buffer followed by boiling for 5 minutes to stop the reaction. […] After electrophoresis, the gel was stained by Brilliant Blue R-250 (Fisher) and destained to view the peptide bands.

For data set [2], the system named is S. aureus USA300. Put plainly: Live cell penetration experiment (FITC, confocal). The class given is cell-based, Staphylococcus aureus. The conditions noted are these: peptide and FITC 12.5 μM. On the procedure:
The entrance of a fluorescent dye into live bacterial cells was followed by confocal microscopy (Mishra et al. (2015) RSC Advances 5:59758-59769). In short, S. aureus USA300 was grown to the exponential phase from the overnight culture. The cells were then washed twice with fresh 1×PBS (pH 7.2) and the final cell density was adjusted to 1×10^8 CFU/mL. 1500 μL of the culture was added to the chambers of cuvettes (borosilicate cover glass systems) with equimolar concentrations of TetraF2W-RK and fluorescein isothiocyanate FITC (12.5 μM). The samples were examined with a confocal laser scanning microscope (Zeiss 710) with a series of live time pictures taken at every 5 seconds for 5 minutes and the data were processed using Zen 2010 software.

The test system of data set [3] is S. aureus USA300. Put plainly: Inhibition of bacterial attachment (XTT). The class given is cell-based, Staphylococcus aureus. The settings on record: 25 μM. On the procedure: (§1) Three types of experiments were conducted to evaluate the anti-biofilm activity of these peptides against S. aureus USA300, which was grown in tryptic soy broth (TSB) media in flat bottom, 96-well, polystyrene microtiter plates (Mishra et al. (2015) RSC Advances 5:59758-59769; Dean et al. (2011) BMC Microbiol., 11:114).
The first experiment measures the ability of the peptide to inhibit bacterial attachment, the initial step for biofilm formation. In short, overnight cultures of S. aureus USA300 were grown in TSB media to an optical density (600 nm) of ˜1.0. 180 μL of this culture was added to each well of the microtiter plates containing 20 μL of 10× peptide solution. The plates are then incubated at 37° C. for 1 hour. Media with bacteria were then pipetted out and chambers were washed with 1×PBS to remove non-adherent cells. The inhibition of biofilms was estimated by XTT [2,3-bis(2-methyloxy-4-nitro-5-sulfophenyl)-2H-tertazolium-5-carboxanilide] assay by following the manufacturer's instructions with modifications. 180 μL of fresh TSB and 20 μL of XTT solution was added to each well and the plates were again incubated for 2 hours at 37° C. Absorbance at 450 nm (only media with XTT containing wells served as the blank) was obtained using a Chromate® microtiter plate reader. […]
For orientation: Formazan colour is commonly taken as a measure of viable cells.

The subject of data set [4] is S. aureus USA300. Put plainly: Preformed biofilm disruption (XTT). The class given is cell-based, Staphylococcus aureus. The conditions noted are these: 25 μM, 24 hour preformed biofilms. On the procedure:
as §1
The third experiment evaluates the ability of the peptide to disrupt the biofilms of S. aureus USA300 formed in 24 hours. S. aureus USA300 (10^5 CFU/mL) in fresh TSB media was made from an exponentially growing culture. 200 μL of this bacterial culture was added to each well of the microtiter plates. The plates are then incubated at 37° C. for 24 hours to allow biofilm formation. Media was then carefully removed followed by washing with sterile 1×PBS to remove any unattached bacteria. Solution containing 20 μL of 10× peptide solution and 180 μL of fresh TSB were added. The plates were again incubated at 37° C. for another 24 hours. The extent of peptide disruption of biofilms was quantified using the same XTT method described above.

Data set [5] deals with S. aureus USA300. Briefly: Confocal microscopy of preformed biofilms, LIVE/DEAD staining. The class given is cell-based, Staphylococcus aureus. The conditions noted are these: 25 μM. On the procedure: S. aureus USA300 (10^5 CFU/mL) was made from exponentially growing bacteria. 1800 μL was added to the chamber of cuvettes (borosilicate cover glass systems), and was incubated for 37° C., 24 hours for biofilm formation. Media was then pipetted out and chambers were washed with 1×PBS to remove non-adhered cells. To disrupt the preformed biofilms, 200 μL of 10× stocks of the peptide was added followed by 1800 μL of TSB. Control cuvettes contained water instead of peptide. The cuvettes were again incubated for another 24 hours at 37° C. Subsequently, the supernatant was pipetted out and the chambers were washed with 1×PBS. For evaluation under confocal microscope the biofilms were stained with […] of LIVE/DEAD® kit (Invitrogen Molecular Probes) according to the manufacturer's instructions. The samples were examined with a confocal laser scanning microscope (Zeiss 710) and the data processed using Zen 2010 software.

The subject of data set [6] is S. aureus USA300. The class given is cell-based, Staphylococcus aureus. The conditions noted are these: USA300, 20 h. On the procedure:
(§2) The antimicrobial activity of peptides was evaluated using a standard broth microdilution protocol. In brief, exponential phase bacteria at 10^6 CFU were incubated with serially diluted peptides overnight for ˜20 hours at 37° C. The plates were read on a ChroMate® 4300 Microplate Reader at 630 nm (GMI, Ramsey, Minn.).

Another data set has as its system E. coli ATCC 25922. The class given is cell-based, Escherichia coli. The conditions noted are these: ATCC 25922, 20 h. On the procedure: as §2

`CC[C@H](C)[C@H](NC(=O)[C@H](CCCCN)NC(=O)[C@H](CCCNC(=N)N)NC(=O)[C@H](CC(C)C)NC(=O)[C@H](Cc1c[nH]c2ccccc12)NC(=O)[C@H](Cc1c[nH]c2ccccc12)NC(=O)[C@@H](N)Cc1c[nH]c2ccccc12)C(=O)N[C@@H](Cc1c[nH]c2ccccc12)C(N)=O` [TetraF2W-RK, WWWLRKIW] (H-WWWLRKIW-NH2; N-terminus assumed): in the data set with S. aureus USA300 [1], the “time for FITC to enter the majority of cells” value is 30 s. The “stability to fungal proteinase K” value at proteinase K was “completely degraded”. In addition, the “time to entry of FITC into bacteria after peptide treatment” value in the data set on S. aureus USA300 [2] is 30 s.

Take `CC[C@H](C)[C@H](NC(=O)[C@H](CCCNC(=N)N)NC(=O)[C@H](CCCNC(=N)N)NC(=O)[C@H](CC(C)C)NC(=O)[C@H](Cc1c[nH]c2ccccc12)NC(=O)[C@H](Cc1c[nH]c2ccccc12)NC(=O)[C@@H](N)Cc1c[nH]c2ccccc12)C(=O)N[C@@H](Cc1c[nH]c2ccccc12)C(N)=O` [TetraF2W-RR, WWWLRRIW] (H-WWWLRRIW-NH2; N-terminus assumed): in the data set on S. aureus USA300 [3], the “reduction of adherence of bacterial cells” value is 83%. The “disruption of preformed biofilms” value with S. aureus USA300 [4] is recorded as ~77%. Further, the “killing in 24 hour preformed biofilms (LIVE/DEAD confocal)” value in the data set on S. aureus USA300 [5] is “capable of killing S. aureus USA300 in 24 hour biofilms”. Moreover, the “S. aureus (MIC)” value with S. aureus USA300 [6] came out at 3.1 µM. Besides, the “E. coli (MIC)” value in the data set on E. coli ATCC 25922 stood at 6.2 µM.
